We go through twelve compounds from US20260317296A1, “HETEROCYCLIC COMPOUNDS FOR IMAGING AGGREGATED TAU IN TAUOPATHIES” (University of Pittsburgh - Of the Commonwealth System of …, priority 2023, published 2026).

Read-outs that look alike come from different tables or passages of the source.

As a reminder, the Ki is the dissociation constant of the complex between target and ligand, obtained from inhibition or displacement. As usually defined, the Kd is a measure of binding affinity in units of concentration. A lower Kd goes with higher affinity. Usually logD stands for lipophilicity at a set pH, counting ionised and neutral species.

The target in data set [1] is T1, aggregated 4R-tau in AD tissue (Homo sapiens, UniProt P10636).
T1 construct: autopsy-confirmed postmortem AD, PSP, and CBD human brain tissues; tissue UCSF Neurodegenerative Disease Brain Bank; host or cells: post-mortem human AD brain homogenate
As to the kind of experiment: In vitro competition (Ki) assay, AD brain tissue homogenate. In kind it is binding.
Protocol: (§1) The assays utilized autopsy-confirmed postmortem AD, PSP, and CBD human brain tissues obtained from the UCSF Neurodegenerative Disease Brain Bank and contained frequent autopsy-confirmed 3R/4R-tau and amyloid-beta aggregates (AD tissue) or only 4R-tau aggregates (PSP and CBD tissues) and no other detectable aggregated amyloid species. Briefly, the tissues were homogenized in ice-cold pH 7.0 phosphate buffered saline (PBS) at 300 mg/mL on ice using a glass homogenizer, diluted 30-fold with PBS to 10 mg/mL and homogenized a second time with a Brinkmann Polytron homogenizer before storage at −80° C. Frozen brain tissue was thawed and diluted 10-fold in PBS to 1 mg/mL. […] The appropriate concentrations (ranging from 0.1-1000 nM) of unlabeled competitor in 400 μL of PBS buffer were combined with 500 μL of the tritium-labeled radioligand in PBS (~1 nM final concentration of radioligand). The assay was initiated by the addition of 100 μL of 1 mg/mL brain tissue homogenate to achieve a final concentration of 100 pg tissue/mL. After incubation for 60 min at room temperature, the binding mixture was filtered through a Whatman GF/B glass filter via a Brandel M-24R cell harvester (Gaithersburg, MD, USA) and rapidly washed four times with 3 mL PBS buffer. The filters were counted in Cytoscint-ES after thorough vortexing using a liquid scintillation counter. […] All assays were performed in triplicate at each concentration.

The target in data set [2] is T2, aggregated 4R-tau in PSP tissue (Homo sapiens, UniProt P10636).
T2 construct: autopsy-confirmed postmortem AD, PSP, and CBD human brain tissues; tissue UCSF Neurodegenerative Disease Brain Bank; host or cells: post-mortem human PSP brain homogenate
Nature of the data set: In vitro competition (Ki) assay, PSP brain tissue homogenate. In kind it is binding.
Protocol: as §1

Data set [3] has as its target T3, aggregated 4R-tau in PSP brain (Homo sapiens, UniProt P10636).
T3 construct: aggregated 4R-tau in human brain tissue samples from AD, PSP, and CBD patients; from tissue; host or cells: homogenized cortex of human PSP brain
As to the kind of experiment: Binding affinity (Kd) assay, PSP brain homogenate. To be noted: for Kd: PSP brain, Table 1.

The target of data set [4] is T4, aggregated 4R-tau in CBD brain (Homo sapiens, UniProt P10636).
T4 construct: aggregated 4R-tau in human brain tissue samples from AD, PSP, and CBD patients; from tissue; host or cells: homogenized cortex of human CBD brain
Nature of the data set: Binding affinity (Kd) assay, CBD brain homogenate. To be noted: for Kd: CBD brain, Table 1.

Data set [5] has as its target T5, aggregated 4R-tau in AD brain (Homo sapiens, UniProt P10636).
T5 construct: aggregated 4R-tau in human brain tissue samples from AD, PSP, and CBD patients; from tissue; host or cells: homogenized cortex of human AD brain
As to the kind of experiment: Binding affinity (Kd) assay, AD brain homogenate. To be noted: for Kd: AD brain, Table 1.

The nature of another data set: log D of radiotracer. Format: physicochemical. To be noted: n=4.
The next data set has as its system AD brain tissue. Nature of the data set: Autoradiography, post-mortem AD brain tissue. Format: binding, human. To be noted: medial frontal cortex, 5 nM, self-blocking with 1 mM unlabeled 69.
The next data set has as its system CBD brain tissue. As to the kind of experiment: Autoradiography, post-mortem CBD brain tissue. In kind it is binding, human. To be noted: medial frontal cortex, 5 nM, self-blocking with 1 mM unlabeled 69.
Data set [6] relates to post-mortem human brain control tissue. As to the kind of experiment: Autoradiography, post-mortem control brain tissue. Format: binding. To be noted: cingulate gyrus, 5 nM, self-blocking with 1 mM unlabeled 69.
Data set [7] deals with T6, Pick's Disease brain tissue (Homo sapiens, UniProt P10636).
T6 construct: post-mortem human AD, PSP, CBD, and Pick's Disease brain tissue; from tissue; host or cells: post-mortem human Pick's Disease brain
Nature of the data set: Homologous binding assay, Pick's Disease brain tissue. To be noted: post-mortem human Pick's Disease brain tissue.

A further data set deals with T7, alpha-synuclein (Homo sapiens, UniProt P37840).
T7 construct: Parkinson's Disease (PD) post-mortem brain tissue; from tissue; host or cells: post-mortem Parkinson's Disease brain
Nature of the data set: Homologous binding assay, Parkinson's Disease (PD) brain tissue.

The subject of a further data set is PSP brain tissue. Nature of the data set: Autoradiography, post-mortem PSP brain tissue. In kind it is binding, human. To be noted: medial frontal cortex, 5 nM, self-blocking with 1 mM unlabeled 69.
The target of the next data set is T8, P301L mouse brain tissue (Homo sapiens, UniProt P10636, P618L).
T8 construct: from tissue; host or cells: brain tissue of P301L mouse
As to the kind of experiment: Homologous binding assay, P301L mouse brain tissue.

For data set [8], the target named is T9, PiB binding site on amyloid-beta (Homo sapiens, UniProt P05067).
T9 construct: from tissue; host or cells: post-mortem human AD brain
Nature of the data set: Competition against [^3H]PiB in post-mortem human AD brain tissue.
Protocol: The assays utilized autopsy-confirmed postmortem AD, PSP, and CBD human brain tissues obtained from the UCSF Neurodegenerative Disease Brain Bank and contained frequent autopsy-confirmed 3R/4R-tau and amyloid-beta aggregates (AD tissue) or only 4R-tau aggregates (PSP and CBD tissues) and no other detectable aggregated amyloid species. Briefly, the tissues were homogenized in ice-cold pH 7.0 phosphate buffered saline (PBS) at 300 mg/mL on ice using a glass homogenizer, diluted 30-fold with PBS to 10 mg/mL and homogenized a second time with a Brinkmann Polytron homogenizer before storage at −80° C. Frozen brain tissue was thawed and diluted 10-fold in PBS to 1 mg/mL. […] The appropriate concentrations (ranging from 0.1-1000 nM) of unlabeled competitor in 400 μL of PBS buffer were combined with 500 μL of the tritium-labeled radioligand in PBS (~1 nM final concentration of radioligand). The assay was initiated by the addition of 100 μL of 1 mg/mL brain tissue homogenate to achieve a final concentration of 100 pg tissue/mL. After incubation for 60 min at room temperature, the binding mixture was filtered through a Whatman GF/B glass filter via a Brandel M-24R cell harvester (Gaithersburg, MD, USA) and rapidly washed four times with 3 mL PBS buffer. The filters were counted in Cytoscint-ES after thorough vortexing using a liquid scintillation counter. […]

[9] abbreviates: vs [^3H]2, n = 1, Ki=IC50/2, read-out: Inhibition Constant (Ki) versus [^3H]2.
The mark [10] stands for this setting: vs [^3H]1, n = 1, Ki=IC50/2, read-out: Inhibition Constant (Ki) versus [^3H]1.
[11] abbreviates: post-mortem human AD brain tissue.

T2 sequence (P10636 1-441 isoform P10636-8): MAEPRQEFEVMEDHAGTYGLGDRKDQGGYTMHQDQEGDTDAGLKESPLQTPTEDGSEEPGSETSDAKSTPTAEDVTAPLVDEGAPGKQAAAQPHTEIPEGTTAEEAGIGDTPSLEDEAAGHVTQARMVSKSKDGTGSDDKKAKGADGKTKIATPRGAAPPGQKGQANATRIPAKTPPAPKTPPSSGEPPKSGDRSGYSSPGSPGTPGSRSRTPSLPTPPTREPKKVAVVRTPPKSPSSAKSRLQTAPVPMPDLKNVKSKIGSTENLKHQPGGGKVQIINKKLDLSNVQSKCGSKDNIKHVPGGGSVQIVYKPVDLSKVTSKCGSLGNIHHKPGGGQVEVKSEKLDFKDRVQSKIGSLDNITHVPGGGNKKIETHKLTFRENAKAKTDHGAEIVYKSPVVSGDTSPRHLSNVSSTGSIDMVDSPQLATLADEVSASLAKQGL
T3 sequence (P10636 1-441 isoform P10636-8): as above
T5 sequence (P10636 1-441 isoform P10636-8): as above
T5 sequence (P10636 1-410 isoform P10636-5): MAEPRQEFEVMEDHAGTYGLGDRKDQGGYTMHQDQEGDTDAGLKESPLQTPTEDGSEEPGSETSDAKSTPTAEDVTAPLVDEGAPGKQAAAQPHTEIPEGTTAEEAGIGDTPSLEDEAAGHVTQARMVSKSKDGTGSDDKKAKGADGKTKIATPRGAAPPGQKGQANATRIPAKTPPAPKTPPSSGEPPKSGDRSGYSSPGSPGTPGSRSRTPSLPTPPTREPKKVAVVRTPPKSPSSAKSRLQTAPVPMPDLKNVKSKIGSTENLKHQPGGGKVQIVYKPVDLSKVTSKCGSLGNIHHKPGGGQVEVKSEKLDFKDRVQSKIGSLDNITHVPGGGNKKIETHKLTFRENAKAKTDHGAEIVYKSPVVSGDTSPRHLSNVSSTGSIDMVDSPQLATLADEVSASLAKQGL
T1 sequence (P10636 1-441 isoform P10636-8): as the sequence (P10636 1-441 isoform P10636-8) above
T1 sequence (P10636 1-410 isoform P10636-5): as the sequence (P10636 1-410 isoform P10636-5) above
T4 sequence (P10636 1-441 isoform P10636-8): as the sequence (P10636 1-441 isoform P10636-8) above
T9 sequence (P05067 672-713 limits assumed): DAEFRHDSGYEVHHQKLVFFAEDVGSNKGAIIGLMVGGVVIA
T6 sequence (P10636 1-410 isoform P10636-5): as the sequence (P10636 1-410 isoform P10636-5) above
T8 sequence (P10636 1-441 isoform P10636-8 P301L): as the sequence (P10636 1-441 isoform P10636-8) above, with P301L counted along it

Consider `Fc1ccc2cc(-c3cnc(N4CCOCC4)cc3F)[nH]c2c1` [Compound 82, 4-(4-Fluoro-5-(6-fluoro-1H-indol-2-yl)pyridin-2-yl)morpholine], for which the Ki in data set [1] (setting [9]) is 11 nM; in [2] (setting [9]), 12 nM.
The matching figures for `Fc1ccc2cc(-c3ncc(N4CCOCC4)cc3F)[nH]c2c1` [Compound 98, 4-(5-Fluoro-6-(6-fluoro-1H-indol-2-yl)pyridin-3-yl)morpholine]: 17 nM and 20 nM.
`OC1CCN(c2ncc(-c3cc4cc(F)ccc4o3)cn2)CC1` [Compound 43, 1-(5-(5-Fluorobenzofuran-2-yl)pyrimidin-2-yl)piperidin-4-ol]: the inhibitory constant (Ki) in data set [1] (setting [10]) stood at 45 nM; in data set [2] (setting [10]), 91 nM.
For `Fc1ccc2cc(-c3cnc(N4CCOCC4)nc3)[nH]c2c1` [[^3H]2], the Kd in [3] amounted to 1.6 ± 0.2 nM; in [4] it was 1.7 ± 0.3 nM; in data set [5], 1.2 ± 0.5 nM.
As for `[18F]c1nc(N2CCOCC2)ccc1-c1cc2ccccc2[nH]1` [[^18F]69, 4-(6-[^18F]Fluoro-5-(1H-indol-2-yl)pyridin-2-yl)morpholine], the logD in the data set “log D of radiotracer” was 1.96 ± 10.
For `Fc1nc(N2CCOCC2)ccc1-c1cc2ccccc2[nH]1` [[^3H]69], the “binding affinity (in words)” value was “high affinity” in data set [3] (post-mortem human PSP brain tissue); “high affinity” in data set [4] (post-mortem human CBD brain tissue); “high affinity” in [7]; “low affinity” at alpha-synuclein (Parkinson's Disease (PD) post-mortem brain tissue); “high affinity” in [5] (setting [11]); “high affinity” on P301L mouse brain tissue. The “specific binding by autoradiography” value in the data set on AD brain tissue is “Specific binding”; with CBD brain tissue, “Specific binding”; in [6] it was “Little to no specific binding”; in the data set with PSP brain tissue, “Specific binding”. The compound also displayed a dissociation constant (Kd) at alpha-synuclein (PD tissue, Table 7 (n = 4)) of 110 ± 54 nM.
`OC1CCN(c2ncc(-c3cc4cc(F)ccc4[nH]3)cn2)CC1` [Compound 47, 1-(5-(5-Fluoro-1H-indol-2-yl)pyrimidin-2-yl)piperidin-4-ol]: the Ki in [1] (setting [10]) turned out to be 21 nM; in [2] (setting [10]) it was 20 nM.
As for `Fc1ccc2cc(-c3cnc(N4CCC(F)(F)CC4)nc3)[nH]c2c1` [Compound 17, 2-(2-(4,4-Difluoropiperidin-1-yl)pyrimidin-5-yl)-6-fluoro-1H-indole], the inhibition constant (Ki) is 37 nM in [1] (setting [10]) and 23 nM in data set [2] (setting [10]).
For `OC1CCN(c2ncc(-c3cc4ccccc4[nH]3)cn2)CC1` [Compound 46, 1-(5-(1H-Indol-2-yl)pyrimidin-2-yl)piperidin-4-ol], the Ki in data set [1] (setting [10]) came to 11 nM; in data set [2] (setting [10]), 24 nM.
Turning to `Cn1c(-c2cnc(N3CCOCC3)nc2)cc2ccc(F)cc21` [Compound 103, 4-(5-(6-Fluoro-1-methyl-1H-indol-2-yl)pyrimidin-2-yl)morpholine], the Ki in data set [1] (setting [10]) amounted to 22 nM; in data set [2] (setting [10]) it was 32 nM.
For `OC1CCN(c2ncc(-c3cc4ccc(F)cc4[nH]3)cn2)CC1` [[^3H]1], the Kd in [3] was 5.1 ± 1.2 nM; in data set [4] it was 4.1 nM; in data set [5] it was 4 ± 3.1 nM.
Consider `Fc1nc(N2CCOCC2)ccc1-c1cc2ccccc2[nH]1` [Compound 69, 4-(6-Fluoro-5-(1H-indol-2-yl)pyridin-2-yl)morpholine], for which the “binding to alpha-synuclein (in words)” value on alpha-synuclein (concluded from PD brain tissue) is “does not bind strongly to alpha-synuclein”. Also, the “binding to the PiB binding site on amyloid-beta (in words)” value in data set [8] (concluded from competition against [^3H]PiB) is “does bind to the PiB binding site on amyloid-beta”. Besides, the “competition against [^3H]PiB (in words)” value in data set [8] (setting [11]) is given as “does not compete well”.
